This note sets out measurements from patent publication US9617283B2, “Bicyclic heterocycle compounds and their uses in therapy” (ASTEX THERAPEUTICS LIMITED, priority 2012, dated 2017).

Assay [1] deals with T1, BIR3 domain of human XIAP (residues 252-350) (Homo sapiens, UniProt P98170).
T1 construct: BIR3 domain of human XIAP (residues 252-350); His-tag (cleaved yes); made in house; host or cells: Escherichia coli
Nature of the assay: XIAP in vitro competitive displacement binding assay (fluorescence polarization). The conditions noted are these: 1 h, percent inhibition (PI) at 0.04 μM; read-out: Xiap IC50 or PI μM.

For assay [2], the system named is EVSA-T (human breast carcinoma). Nature of the assay: Anti-proliferative activity, Alamar Blue assay, EVSA-T. Format: cell-based.
The mark [3] stands for this setting: Homo sapiens, EVSA-T, 72 h, EVSA-T cell line, 72 hours, Alamar Blue; read-out: EVSA-T prolif.
The mark [4] stands for this setting: Homo sapiens, EVSA-T; read-out: EC50 in EVSA-T cell line assays.
Where [5] appears, read: EVSA-T cell line, 72 hours, Alamar Blue; dihydrochloride; read-out: EVSA-T prolif.

Counter-ions that a name gives are not always drawn. Like-named read-outs stand apart in the source and are kept apart here.

T1 sequence (P98170 252-350): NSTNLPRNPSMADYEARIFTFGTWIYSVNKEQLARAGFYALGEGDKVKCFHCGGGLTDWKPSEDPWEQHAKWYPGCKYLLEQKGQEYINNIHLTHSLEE

In the case of `CCCC(F)(F)c1cc2c(cn1)C(C)(C)CN2C(=O)CN1C[C@@H](C)NC[C@@H]1CN1CC(C)=C(C)C1=O` [Example 28, 1-{[(2R,5R)-1-{2-[6-(1,1-Difluorobutyl)-3,3-dimethyl-1H,2H,3H-pyrrolo[3,2-c]pyridin-1-yl]-2-oxoethyl}-5-methylpiperazin-2-yl]methyl}-3,4-dimethyl-2,5-dihydro-1H-pyrrol-2-one, dihydrochloride], the inhibition at 0.04 µM in assay [1] is 67%. The EC50 in assay [2] (setting [3]) was 10 nM; in assay [2] (setting [4]) it was less than 1000 nM.
Taken in the same sequence, the figures for `C[C@@H]1CN(CC(=O)N2CC(C)(C)c3ncc([C@@H](O)c4ccc(F)cc4)cc32)[C@@H](CN2Cc3ccccc3C2=O)CN1` [Example 96, 2-{[(2R,5R)-1-(2-{6-[(S)-(4-Fluorophenyl)(hydroxy)methyl]-3,3-dimethyl-1H,2H,3H-pyrrolo[3,2-b]pyridin-1-yl}-2-oxoethyl)-5-methylpiperazin-2-yl]methyl}-2,3-dihydro-1H-isoindol-1-one] were 62%, 31 nM and less than 1000 nM.
On to `CCC1CN(C[C@H]2CN[C@H](C)CN2CC(=O)N2CC(C)(C)c3ncc([C@@H](O)c4ccc(F)cc4)cc32)C(=O)CO1` (single isomer, unassigned) [Example 110, (R or S)-6-ethyl-4-{[(2R,5R)-1-(2-{6-[(S)-(4-Fluorophenyl)(hydroxy)methyl]-3,3-dimethyl-1H,2H,3H-pyrrolo[3,2-b]pyridin-1-yl}-2-oxoethyl)-5-methylpiperazin-2-yl]methyl}morpholin-3-one dihydrochloride], for which the inhibition at 0.04 µM in assay [1] worked out at 48%. Moreover, the EC50 was 290 nM in assay [2] (setting [5]) and less than 1000 nM in assay [2] (Homo sapiens, EVSA-T, read-out: EC50 in EVSA-T cell line assays).
As for `CCCC(F)(F)c1cc2c(nn1)C(C)(C)CN2C(=O)CN1C[C@@H](C)NC[C@@H]1CN1Cc2ccccc2C1=O` [Example 59, 2-{[(2R,5R)-1-{2-[3-(1,1-Difluorobutyl)-7,7-dimethyl-5H,6H,7H-pyrrolo[3,2-c]pyridazin-5-yl]-2-oxoethyl}-5-methylpiperazin-2-yl]methyl}-2,3-dihydro-1H-isoindol-1-one dihydrochloride], the inhibition at 0.04 µM in assay [1] worked out at 68%. Further, the EC50 in assay [2] (setting [3]) is 1.6 nM; in assay [2] (setting [4]), less than 1000 nM.
Taken in the same sequence, the figures for `CCCC(F)(F)c1cc2c(cn1)C(C)(C)CN2C(=O)CN1C[C@@H](C)NC[C@@H]1CN1C[C@H](C)OCC1=O` [Example 26, (6S)-4-{[(2R,5R)-1-{2-[6-(1,1-Difluorobutyl)-3,3-dimethyl-1H,2H,3H-pyrrolo[3,2-c]pyridin-1-yl]-2-oxoethyl}-5-methylpiperazin-2-yl]methyl}-6-methylmorpholin-3-one, dihydrochloride] were 60%, 27 nM and less than 1000 nM.
As for `CCCC(O)c1cnc2c(c1)N(C(=O)CN1C[C@@H](C)NC[C@@H]1CN1Cc3ccccc3C1=O)CC2(C)C` (single isomer, unassigned) [Example 90, dihydrochloride], the inhibition at 0.04 µM in assay [1] is 54%. In addition, the EC50 in assay [2] (setting [5]) was 13 nM; in assay [2] (setting [4]), less than 1000 nM.
`C[C@@H]1CC(=O)N(C[C@H]2CN[C@H](C)CN2CC(=O)N2CC(C)(C)c3cnc(Cc4ccc(F)cc4F)cc32)C1` [Example 71, (4R)-1-{[(2R,5R)-1-(2-{6-[(2,4-Difluorophenyl)methyl]-3,3-dimethyl-1H,2H,3H-pyrrolo[3,2-c]pyridin-1-yl}-2-oxoethyl)-5-methylpiperazin-2-yl]methyl}-4-methylpyrrolidin-2-one dihydrochloride]: the inhibition at 0.04 µM in assay [1] worked out at 64%. In addition, the EC50 in assay [2] (setting [3]) is 2.5 nM; in assay [2] (setting [4]), less than 1000 nM.
For `CCCC(F)(F)c1cc2c(nn1)C(C)(C)CN2C(=O)CN1C[C@@H](C)NC[C@@H]1CN1Cc2ccc(F)cc2C1=O` [Example 99, 2-{[(2R,5R)-1-{2-[3-(1,1-Difluorobutyl)-7,7-dimethyl-5H,6H,7H-pyrrolo[3,2-c]pyridazin-5-yl]-2-oxoethyl}-5-methylpiperazin-2-yl]methyl}-6-fluoro-2,3-dihydro-1H-isoindol-1-one dihydrochloride], the inhibition at 0.04 µM in assay [1] was determined as 65%. Moreover, the EC50 was 6.6 nM in assay [2] (setting [3]) and less than 1000 nM in assay [2] (setting [4]).
Regarding `C[C@@H]1CN(CC(=O)N2CC(C)(C)c3nnc(Cc4ccc(F)cc4F)cc32)[C@@H](CN2Cc3cccc(F)c3C2=O)CN1` [Example 113, 2-{[(2R,5R)-1-(2-{3-[(2,4-Difluorophenyl)methyl]-7,7-dimethyl-5H,6H,7H-pyrrolo[3,2-c]pyridazin-5-yl}-2-oxoethyl)-5-methylpiperazin-2-yl]methyl}-7-fluoro-2,3-dihydro-1H-issoindol-1-one dihydrochloride], in assay [1], the inhibition at 0.04 µM turned out to be 69%. For the same compound, the values for the EC50 in assay [2] (setting [3]) and in assay [2] (setting [4]) were 0.62 nM and less than 1000 nM, respectively.
For the compound `C[C@H]1CC(=O)N(C[C@H]2CN[C@H](C)CN2CC(=O)N2CC(C)(C)c3ncc(Cc4ccc(F)cc4F)cc32)C1` [Example 73, (4S)-1-{[(2R,5R)-1-(2-{6-[(2,4-Difluorophenyl)methyl]-3,3-dimethyl-1H,2H,3H-pyrrolo[3,2-b]pyridin-1-yl}-2-oxoethyl)-5-methylpiperazin-2-yl]methyl}-4-methylpyrrolidin-2-one dihydrochloride], the inhibition at 0.04 µM in assay [1] worked out at 64%. Further, the EC50 was 2.5 nM in assay [2] (setting [3]) and less than 1000 nM in assay [2] (setting [4]).
The like results for `C[C@@H]1CN(CC(=O)N2CC(C)(C)c3ncc(Cc4ccc(F)cc4F)cc32)[C@@H](CN2Cc3c(O)cccc3C2=O)CN1` [Example 118, 2-{[(2R,5R)-1-(2-{6-[(2,4-Difluorophenyl)methyl]-3,3-dimethyl-1H,2H,3H-pyrrolo[3,2-b]pyridin-1-yl}-2-oxoethyl)-5-methylpiperazin-2-yl]methyl}-4-hydroxy-2,3-dihydro-1H-isoindol-1-one dihydrochloride] were, in that order, 72%, 6.4 nM and less than 1000 nM.
Taken in the same sequence, the figures for `CCCC(F)(F)c1cc2c(cn1)C(C)(C)CN2C(=O)CN1C[C@@H](C)NC[C@@H]1CN1Cc2ccccc2C1=O` [Example 27, 2-{[(2R,5R)-1-{2-[6-(1,1-Difluorobutyl)-3,3-dimethyl-1H,2H,3H-pyrrolo[3,2-c]pyridin-1-yl]-2-oxoethyl}-5-methylpiperazin-2-yl]methyl}-2,3-dihydro-1H-isoindol-1-one, dihydrochloride] were 75%, 5.2 nM and less than 1000 nM.
The like results for `C[C@@H]1CN(CC(=O)N2CC(C)(C)c3cnc(Cc4ccc(F)cc4F)cc32)[C@@H](CN2C[C@@H](C)N(C)CC2=O)CN1` [Example 85, (5R)-1-{[(2R,5R)-1-(2-{6-[(2,4-Difluorophenyl)methyl]-3,3-dimethyl-1H,2H,3H-pyrrolo[3,2-c]pyridin-1-yl}-2-oxoethyl)-5-methylpiperazin-2-yl]methyl}-4,5-dimethylpiperazin-2-one dihydrochloride] were, in that order, 45%, 4.5 nM and less than 1000 nM.
With `C[C@@H]1CN(CC(=O)N2CC(C)(C)c3ncc(Cc4ccc(F)cc4)cc32)[C@@H](CN2CC(C)(C)OC2=O)CN1` [Example 5, 3-{[(2R,5R)-1-(2-{6-[(4-Fluorophenyl)methyl]-3,3-dimethyl-1H,2H,3H-pyrrolo[3,2-b]pyridin-1-yl}-2-oxoethyl)-5-methylpiperazin-2-yl]methyl}-5,5-dimethyl-1,3-oxazolidin-2-one dihydrochloride], the inhibition at 0.04 µM in assay [1] amounted to 44%. For the same compound, the EC50 is 6.2 nM in assay [2] (setting [3]) and less than 1000 nM in assay [2] (setting [4]).
The like results for `C[C@@H]1CN(CC(=O)N2CC(C)(C)c3cnc(Cc4ccc(F)cc4)cc32)[C@@H](CN2Cc3ccccc3C2=O)CN1` [Example 60, 2-{[(2R,5R)-1-(2-{6-[(4-Fluorophenyl)methyl]-3,3-dimethyl-1H,2H,3H-pyrrolo[3,2-c]pyridin-1-yl}-2-oxoethyl)-5-methylpiperazin-2-yl]methyl}-2,3-dihydro-1H-isoindol-1-one dihydrochloride] were, in that order, 94%, 0.29 nM and less than 1000 nM.
Taken in the same sequence, the figures for `C[C@@H]1CN(CC(=O)N2CC(C)(C)c3ncc(Cc4ccc(F)cc4)cc32)[C@@H](CN2CC3(COC3)CC2=O)CN1` [Example 12, 6-{[(2R,5R)-1-(2-{6-[(4-Fluorophenyl)methyl]-3,3-dimethyl-1H,2H,3H-pyrrolo[3,2-b]pyridin-1-yl}-2-oxoethyl)-5-methylpiperazin-2-yl]methyl}-2-oxa-6-azaspiro[3.4]octan-7-one L-lactate] were 42%, 7.1 nM and less than 1000 nM.
The like results for `CC1CC(=O)N(C[C@H]2CN[C@H](C)CN2CC(=O)N2CC(C)(C)c3ncc(Cc4ccc(F)cc4)cc32)C1` (stereo partly drawn) [Example 6, 1-{[(2R,5R)-1-(2-{6-[(4-Fluorophenyl)methyl]-3,3-dimethyl-1H,2H,3H-pyrrolo[3,2-b]pyridin-1-yl}-2-oxoethyl)-5-methylpiperazin-2-yl]methyl}-4-methylpyrrolidin-2-one dihydrochloride] were, in that order, 48%, 1.1 nM and less than 1000 nM.
For `COc1ccc2c(c1)CN(C[C@H]1CN[C@H](C)CN1CC(=O)N1CC(C)(C)c3cnc(Cc4ccc(F)cc4)cc31)C2=O` [Example 92, 2-{[(2R,5R)-1-(2-{6-[(4-Fluorophenyl)methyl]-3,3-dimethyl-1H,2H,3H-pyrrolo[3,2-c]pyridin-1-yl}-2-oxoethyl)-5-methylpiperazin-2-yl]methyl}-5-methoxy-2,3-dihydro-1H-isoindol-1-one dihydrochloride], the inhibition at 0.04 µM in assay [1] was determined as 93%. In addition, the EC50 in assay [2] (setting [3]) is 0.26 nM; in assay [2] (setting [4]) it was less than 1000 nM.
